Experimental findings from the Deep4Chem optical property database are described below.

A short description of the data set: solvent given as SMILES.

`CCCCC(CC)Cn1c2cc(C#N)c(-c3ccc(N(c4ccccc4)c4ccccc4)cc3)cc2c2cc(-c3ccc(N(c4ccccc4)c4ccccc4)cc3)c(C#N)cc21` (stereo not drawn): the emission maximum is, setting by setting: (in C1CCCCC1) 450 nm; (in C1CCOC1) 494 nm; (in CC#N) 542 nm; (in CCCCOCCCC) 464 nm; (in CCN(CC)CC) 464.65 nm; (in CCOC(C)=O) 494 nm. For the same molecule, the emission maximum (in CCOCC) amounted to 472 nm; the emission maximum (in CN(C)C=O) stood at 542 nm; the emission maximum (in Cc1ccccc1) is recorded as 473 nm; the emission maximum (in ClC=C(Cl)Cl) turned out to be 478 nm; the emission maximum (in ClCCl) amounted to 513 nm.

With `N#CC1=CC(/C=C/c2ccccc2)=CC(C#N)=P1(c1ccccc1)c1ccccc1`, the emission maximum (in ClC(Cl)Cl) was determined as 581 nm.

Turning to `Oc1ccccc1/C=N/c1cc2nc3ccccc3nc2cc1/N=C/c1ccccc1O`, the emission maximum (in CC#N) was 501 nm.

For the molecule `COc1ccc(-c2[nH]c(=O)n3c2-c2ccccc2C3=O)c(OC)c1`, the emission maximum amounted to 492 nm (in CC#N), 507 nm (in CO) and 488 nm (in ClCCl).

For `CN(C)c1[se]c(-c2ccc(Cl)cc2)nc1-c1ccccc1`, the emission maximum (in ClC(Cl)Cl) worked out at 455 nm.

Molecule `CCCCn1c2ccc(-c3ccccc3)cc2c2ccc3c4cc(-c5ccccc5)ccc4n(CCCC)c3c21` showed an emission maximum (in ClC(Cl)Cl) of 414 nm.

As for `CN(C)c1ccc2cc(C(/C=C/c3cn(C)c4ccccc34)=C(C#N)C#N)c(=O)oc2c1`, the emission maximum reads like this: (in C1CCOC1) 584 nm; (in C1COCCO1) 568 nm; (in CN(C)C=O) 539 nm; (in CS(C)=O) 555 nm; (in ClCCl) 583 nm.
